Data published in patent US20240279302A1, “OLFACTORY RECEPTOR EXPRESSING METHOD AND RESPONSE MEASUREMENT METHOD” (Kao Corporation, priority 2021, published 2024).
Entries after “also recorded” stand apart in the source; their conditions may differ.

Assays:
[1] = target: T1, consensus 10A2, (c) Ortholog (Homo sapiens, UniProt Q9H208, A297G/C30S/G257S/H207R/I240V/M268V/N222H/T20I/V292F); assay: Luciferase assay (odorant response); type: cell-based
T1 construct: expressed in transfected cells; host or cells: HEK293
T1 sequence (Q9H208 with tags, fused parts or gaps T20I/C30S/H207R/N222H/I240V/G257S/M268V/V292F/A297G): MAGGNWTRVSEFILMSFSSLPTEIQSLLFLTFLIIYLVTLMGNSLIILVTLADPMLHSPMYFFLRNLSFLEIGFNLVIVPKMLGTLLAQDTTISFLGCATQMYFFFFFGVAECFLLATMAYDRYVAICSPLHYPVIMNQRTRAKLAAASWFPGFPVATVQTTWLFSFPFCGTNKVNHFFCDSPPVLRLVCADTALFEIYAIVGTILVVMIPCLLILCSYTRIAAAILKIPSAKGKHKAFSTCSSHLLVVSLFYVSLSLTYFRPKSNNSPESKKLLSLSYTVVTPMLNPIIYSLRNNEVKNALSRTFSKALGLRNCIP
Procedure: (§1) For luciferase assay, a reaction solution was prepared according to composition shown in Table 4, left standing for 20 minutes in a clean bench, and then added to each well of a 96-well plate (Becton, Dickinson and Company). Subsequently, 100 μL of HEK293 cells suspended in DMEM (Nacalai Tesque, Inc.) was inoculated at 2×10^5 cells/cm^2 to each well, and cultured for 24 hours in an incubator kept at 37° C. and 5% CO2. Cells expressing no olfactory receptor (Mock) were provided as a control.
(§2) The medium was removed from the cultures prepared in 2), and 75 μL of a test substance solution with a predetermined concentration prepared with a fresh medium was added thereto. The cells were cultured for 4 hours in a CO2 incubator and the luciferase gene was sufficiently expresses in the cells. Luciferase activity was measured using Dual-Glo™ luciferase assay system (Promega Corp.) in accordance with the operation manual of the product. A luminescence value derived from firefly luciferase induced by test substance stimulation in each well of the 96-well plate was divided by a luminescence value derived from Renilla luciferase to calculate a signal, which was then used in analysis. The signal under each transfection condition was normalized with the signal under a stimulation-free condition defined as 0% and the signal by stimulation with 30 μM forskolin defined as 100%, and used as a response (%) in analysis.

[2] = target: T2, consensus 10A4, (c) Ortholog (Homo sapiens, UniProt Q9H209, A244S/A267T/E4G/H132R/H139R/I140R/I51T/K296S/K303R/L305V/Q237K/Q264R/S141A/S155P/S269P/S279Y/S293L/S312P/T22S/V195L); assay: Luciferase assay (odorant response); type: cell-based
T2 construct: expressed in transfected cells; host or cells: HEK293
T2 sequence (Q9H209 1-315 with the stated changes): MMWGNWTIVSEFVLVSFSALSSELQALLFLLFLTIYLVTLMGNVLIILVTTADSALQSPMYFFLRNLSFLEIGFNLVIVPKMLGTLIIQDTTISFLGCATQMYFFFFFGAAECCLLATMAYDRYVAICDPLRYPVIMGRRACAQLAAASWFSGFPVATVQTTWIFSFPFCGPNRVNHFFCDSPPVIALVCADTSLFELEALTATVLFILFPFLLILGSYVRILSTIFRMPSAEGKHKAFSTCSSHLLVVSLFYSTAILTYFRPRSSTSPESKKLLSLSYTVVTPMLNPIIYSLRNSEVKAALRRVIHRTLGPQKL
Procedure: as §1, §2

[3] = target: T3, consensus 10A4 R262Q variant (Homo sapiens, UniProt Q9H209, A244S/A267T/E4G/H132R/H139R/I140R/I51T/K296S/K303R/L305V/Q237K/Q264R/R262Q/S141A/S155P/S269P/S279Y/S293L/S312P/T22S/V195L); assay: Luciferase assay (odorant response); type: cell-based
T3 construct: expressed in transfected cells; host or cells: HEK293
Procedure: as §1, §2
(§3) Whether responsiveness coinciding with difference among individuals in sensory evaluation would be obtained was tested by applying the consensus design (c) to each human olfactory receptor newly identified in FIGS. 5 and 6, and then introducing an amino acid sequence reported to have difference among individuals (FIG. 7).

[4] = target: T4, consensus OR10A2 variant of H43R, H207R, and K258T (Homo sapiens, UniProt Q9H208, A297G/C30S/G257S/H207R/H43R/I240V/K258T/M268V/N222H/T20I/V292F); assay: Luciferase assay (odorant response); type: cell-based
T4 construct: expressed in transfected cells; host or cells: HEK293
T4 sequence (Q9H208 with tags, fused parts or gaps with the stated changes): as the sequence (Q9H208 with tags, fused parts or gaps T20I/C30S/H207R/N222H/I240V/G257S/M268V/V292F/A297G) above, with H57R, K272T counted along it
Procedure: as §1, §2, §3

[5] = target: T5, consensus olfactory receptor 5C1 with N5K mutation (Homo sapiens, UniProt Q8NGR4, A10R/A30T/A50V/C35F/G245C/H231R/H313C/I178V/I206V/K177E/L166F/L6F/M255L/M47V/M55V/N23D/N5K/Q142R/Q307R/R131G/R8W/S194N/S238R/S288A/T114A/T219A/T34I/V17I/V235A); assay: Luciferase assay (odorant response); type: cell-based; settings: versus consensus 5C1
T5 construct: expressed in transfected cells; host or cells: HEK293
T5 sequence (Q8NGR4 1-320 with the stated changes): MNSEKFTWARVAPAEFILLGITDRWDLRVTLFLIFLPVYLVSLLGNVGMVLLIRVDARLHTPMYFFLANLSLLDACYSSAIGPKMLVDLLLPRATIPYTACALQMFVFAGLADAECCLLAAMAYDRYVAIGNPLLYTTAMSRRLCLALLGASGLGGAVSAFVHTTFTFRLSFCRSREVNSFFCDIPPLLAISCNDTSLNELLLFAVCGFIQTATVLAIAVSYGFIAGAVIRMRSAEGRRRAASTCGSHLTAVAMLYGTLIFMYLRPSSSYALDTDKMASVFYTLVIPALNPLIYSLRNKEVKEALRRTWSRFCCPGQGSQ
Procedure: as §1, §2, §3

6Y1 = settings: as disclosed in Non Patent Literature 2; cited from earlier work
[6] = target: T6, OR2A25 (original human receptor) (Homo sapiens, UniProt A4D2G3); assay: Luciferase assay (odorant response); type: cell-based
T6 construct: expressed in transfected cells; host or cells: HEK293
T6 sequence (A4D2G3 whole entry): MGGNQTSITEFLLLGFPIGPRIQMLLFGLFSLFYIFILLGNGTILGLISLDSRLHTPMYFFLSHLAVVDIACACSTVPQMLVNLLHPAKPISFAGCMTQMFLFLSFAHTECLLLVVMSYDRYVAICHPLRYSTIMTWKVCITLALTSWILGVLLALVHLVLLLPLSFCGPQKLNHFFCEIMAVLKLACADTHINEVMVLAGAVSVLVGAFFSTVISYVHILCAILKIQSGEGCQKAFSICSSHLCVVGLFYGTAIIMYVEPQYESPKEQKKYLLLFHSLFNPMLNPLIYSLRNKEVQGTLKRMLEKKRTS
Procedure: as §1, §2

[7] = target: T7, consensus olfactory receptor 6B2 with R122C and C179R mutations (Homo sapiens, UniProt Q6IFH4, C161Y/C179R/C234R/E83D/G146A/H133Q/I215V/I48T/L135I/L142V/L17F/L255M/L256I/M157V/P138T/Q268R/Q89R/R122C/S64G/T78I/V136M/V15L/V166A/V250I/V281L/W219G); assay: Luciferase assay (odorant response); type: cell-based; settings: versus consensus 6B2
T7 construct: expressed in transfected cells; host or cells: HEK293
T7 sequence (Q6IFH4 with tags, fused parts or gaps with the stated changes): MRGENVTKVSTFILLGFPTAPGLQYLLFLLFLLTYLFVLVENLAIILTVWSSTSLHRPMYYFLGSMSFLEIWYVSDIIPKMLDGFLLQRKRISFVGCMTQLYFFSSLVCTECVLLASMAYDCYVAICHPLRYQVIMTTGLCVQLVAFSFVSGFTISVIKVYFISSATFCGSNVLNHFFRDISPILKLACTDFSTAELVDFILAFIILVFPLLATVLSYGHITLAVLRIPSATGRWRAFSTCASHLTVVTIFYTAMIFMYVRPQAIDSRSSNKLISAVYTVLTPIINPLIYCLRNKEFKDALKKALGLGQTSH
Procedure: as §1, §2, §3

Structure (SMILES) | response of consensus 10A2 [1] | response of consensus 10A4 [2] | responsiveness of the 10A4 R262Q variant [3] | responsiveness of the 10A2 variant of H43R, H207R, and K258T [4] | further results
CCCCCCC/C=C/C=O [(E)-2-decenal] | can recognize | can recognize; also recorded: lower responsiveness | no change in responsiveness | markedly low responsiveness | –
CCCCCCCCC/C=C/C=O [(E)-2-dodecenal] | can recognize | can recognize; also recorded: lower responsiveness | no change in responsiveness | markedly low responsiveness | –
CC(C)=CCCC(C)=CC=O [citral] | – | – | – | – | responsiveness of consensus 5C1 with N5K [5]: markedly reduced
CC(=O)C(C)=O [diacetyl] | – | – | – | – | response of 6Y1 (6Y1): responds
CC(C)=CCC/C(C)=C/CO [geraniol] | – | – | – | – | response of 2A25 (ranking of affinity for 2 agonists) [6]: responded to geraniol at a lower concentration in comparison with geranyl formate
CC(C)C=O [isobutyraldehyde] | – | – | – | – | responsiveness of consensus 6B2 with R122C and C179R [7]: markedly reduced
